Reference: ChEMBL document CHEMBL4334467, “Synthesis and SAR Study of Carbamoyl Pyridone Bicycle Derivatives as Potent Inhibitors of Influenza Cap-dependent Endonuclease” (J Med Chem, 2019)

Tests used:
[1] = tested on: Influenza A virus; format: functional, organism-based
[2] = tested on: Influenza A virus; assay: microbe, parasite or virus in culture; format: functional, organism-based; conditions: A/WSN/1933(H1N1), MDCK, 72 h

| SMILES | EC50 [1] [µM] | EC50 [2] [µM] |
| --- | --- | --- |
| CC(C)N1CN(C(c2ccccc2)c2ccccc2)n2ccc(=O)c(O)c2C1=O | 0.0804 | 0.165 |
| CC(C)N1C[C@H](C(c2ccccc2)c2ccccc2)n2ccc(=O)c(O)c2C1=O | 0.0892 | 0.155 |
